Laboratory results published in US20260276656A1, “GUT MICROBIOTA-RELATED METHODS FOR TREATING DEMENTIA AND AGE-DEPENDENT COGNITIVE DECLINE” (Albert-Ludwigs-Universitat Freiburg, priority 2019, published 2026).

How the values were obtained:
Format in all cases: in vivo, mouse
microglia = assay: Microglia depletion verified by Iba-1 immunohistochemistry; details: 1200 mg/kg in AIN-76A chow ad libitum; cortex and hippocampus; FIG. 15E-F
Procedure: (§1) In order to acutely deplete the gut microbiota, 15-16 months old SPF males were treated via oral gavage with a mixture of antibiotics (ABX), containing Cefoxitin (Santa Cruz Biotechnology), Gentamicin (Sigma-Aldrich) Metronidazole (Sigma-Aldrich), and Vancomycin (Hikma-pharma), each 10 mg/kg in sterile 1×PBS, for three consecutive days. On the fourth day, the mice were treated with one dose of Clindamycin hydrochloride (33.3 mg/kg) (Sigma-Aldrich). Fecal microbiota transplantations (FMTs) were started 24 h later. To deplete csf1-dependent cells in vivo, including microglia, mice were provided with CSF1R-inhibitor PLX5622 (Plexxicon Inc.) mixed into AIN-76A standard chow at 1200 mg/kg (Research Diets Inc.) ad libitum. Respective controls received AIN-76A standard chow. Mice were injected with 5 mg/kg δ-valerobetaine (MCAT, Germany) 1 h before behavioral testing.
Mice were lethally anesthetized with ketamine (100 mg/kg bodyweight) and xylazine (10 mg/kg body weight) followed by perfusion with 1×PBS through the left heart chamber. For histology, the brains were kept overnight in 4% PFA. The brains were then dehydrated in 30% sucrose and embedded in Tissue-Tek O.C.T.™ compound (Sakura Finetek Germany GmbH). […] Fluorescence imaging was performed with BZ-9000 Biorevo microscope (Keyence). Iba-1+DAPI+ cells were quantified using ImageJ (v. 1.53c).

C57BL/6J mice [1] = assay: Novel object recognition (NOR) test (recognition memory); details: old mice and old mice subjected to FMT from young donors; PLX5622 chow versus respective control mice; FIG. 15C-D
Procedure: as §1
(§2) For microbiota depletion studies, SPF mice were treated with 1 mg/ml of ampicillin (Auromedics), neomycin sulfate (Fisher), streptomycin (Sigma) and 0.5 mg/ml of vancomycin (Sagent) in the drinking water for 4-5 weeks (Khosravi et al., 2014). These mice were recolonized via FMT, which was achieved by oral gavage of a faecal slurry. Recipient mice had the food removed from the cage for 2 h prior to FMT. The faecal slurry was obtained by pooling faecal pellets from 8-14 donor mice. The pellets were weighed and resuspended by vortexing for 1 min in 1 mL PBS per 300 mg of faeces. After pelleting larger particles by centrifugation at 500×g for 5 min, the supernatant was collected for FMT. Each recipient mouse received 150 μl of faecal slurry by oral gavage. The remaining slurry was stored at −80° C. for 16S rRNA sequencing. Following FMT, the cages of recipient mice were replenished with dirty bedding and fresh faecal pellets from donor mice once and twice a week, respectively. Faecal pellets for 16S rRNA sequencing were collected the day before FMT and at the end of the experiment and were stored at −80° C. for DNA extraction. For re-colonization of ABX treated mice, FMTs from 8 weeks old or 15-16 months old males were undergone. Fresh fecal pellets are collected under a sterile hood and directly thoroughly homogenized in 0.1% L-Cysteine hydrochloride monohydrate in 1×PBS in order to maintain anaerobic microbes. The homogenates were spun down for 1 min, 200 g at 4° C. and the turbid supernatant was used to orally and rectally gavage the recipient mice. The FMT was performed twice 72 h apart.
(§3) NNN-trimethyl-5-aminovalerate was dissolved in 0.9% NaCl and administered i.p. at a dose of 200 mg/kg in a volume of 10 ml/kg. As control the vehicle NaCl was injected.
(§4) Mice were tested 40 min after drug- or vehicle injection or 4 weeks after FMT. We first performed the training run for the Novel-object recognition test, followed by the T maze test and then 6 h after the training session mice were tested in the Novel object recognition test. Spatial working memory was tested using the continuous spontaneous alternation task in a T-maze as described previously (Spowart-Manning, L. et al). Briefly, animals were set into the base of a T-maze and allowed to explore a randomly assigned T-maze arm until it returned to the base arm. Subsequently, the blocked arm was opened, and the animal was allowed to explore the complete maze. Once one arm of the T-maze was entered, the other arm was blocked until the animal returned to the base arm. Then, the exit of the base arm was blocked for 5 s and the animal was allowed to explore the maze again. The experiment was stopped after 14 free choice arm entries. Arm entries were scored as alternations if an animal chose the opposing arm compared to the arm visited immediately prior to the scored instance. The Novel Object Recognition (NOR) task was applied to evaluate recognition memory as published previously (Antunes, M. & Biala, G. et al). During the habituation phase, each mouse was allowed to explore two similar objects within a total exploration time of 20 s. […]

C57BL/6J mice [2] = assay: T-maze spontaneous alternation test (spatial working memory); details: old mice and old mice subjected to FMT from young donors; PLX5622 chow versus respective control mice; FIG. 15B
Procedure: as §1, §2, §3, §4

## COc1ncc(F)cc1CNc1ccc(Cc2c[nH]c3ncc(C)cc23)c(F)n1 [PLX5622, reference compound]
microglia
  microglia in brain tissue (Iba-1 immunohistochemistry): almost complete absence
C57BL/6J mice [1]
  NOR performance of mice lacking microglia: unchanged
C57BL/6J mice [2]
  T maze performance of mice lacking microglia: unchanged
